Experimental data reported in US20240353411A1, “HE4 DETECTING PEPTIDE AND USE THEREOF” (Ajou University Industry-Academic Cooperation Foundation, priority 2022, published 2024).
No end group written: not given here.

Tests used:
CA125 protein [1] = target: T1, CA125 protein (Homo sapiens, UniProt Q8WXI7); test: Binding affinity Kd, synthesized peptide vs fluorescently labeled protein, Monolith NT.115; settings: CA125 protein labeled RED-NHS, read-out: binding affinity Kd (dissociation constant)
T1 construct: purchased R&D Systems Inc, MN, USA
T1 sequence (Q8WXI7 12660-12923 limits assumed): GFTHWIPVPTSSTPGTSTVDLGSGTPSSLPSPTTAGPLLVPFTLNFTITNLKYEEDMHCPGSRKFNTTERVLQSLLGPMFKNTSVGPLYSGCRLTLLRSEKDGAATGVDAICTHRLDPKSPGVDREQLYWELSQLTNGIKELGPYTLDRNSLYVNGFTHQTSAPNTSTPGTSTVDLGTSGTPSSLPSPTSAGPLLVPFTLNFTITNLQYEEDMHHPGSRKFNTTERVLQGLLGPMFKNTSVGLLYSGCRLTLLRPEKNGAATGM
Procedure: (§1) In order to evaluate the binding affinity and specificity of the discovered SEQ ID NO: 1 peptide to the CA125 protein, and the binding affinity and specificity of the SEQ ID NO: 2 peptide to HE4, ELISA assay was performed according to the manufacturer's instructions using CA125 protein (R&D Systems Inc, MN, USA), HE4 protein (Sinobiological, PA, USA), HRP-conjugated M13 antibody (Sinobiological, PA, USA), and TMB solution (Thermo Scientific, MA, USA). In addition, to measure the binding affinity Kd (dissociation constant), the discovered peptides of SEQ ID NO: 1 and SEQ ID NO: 2 were synthesized (Biostem, Suwon, Korea), CA125 protein and HE4 protein were each fluorescently labeled using Protein Labeling kit RED-NHS 2nd Generation (NanoTemper Technologies, Munich, Germany). Afterwards, the binding affinity between peptide and protein was measured using Monolith NT.115 (NanoTemper Technologies, Munich, Germany) according to the manufacturer's instructions.

CA125 protein [2] = target: T1, CA125 protein; test: ELISA assay of binding and specificity to CA125 protein; settings: HRP-conjugated M13 antibody, TMB, FIG. 1
Procedure: as §1

HE4 protein [3] = target: T2, HE4 protein (Homo sapiens, UniProt Q14508); test: Binding affinity Kd, synthesized peptide vs fluorescently labeled protein, Monolith NT.115; settings: HE4 protein labeled RED-NHS, read-out: binding affinity Kd (dissociation constant)
T2 construct: purchased Sinobiological, PA, USA
T2 sequence (Q14508 31-124): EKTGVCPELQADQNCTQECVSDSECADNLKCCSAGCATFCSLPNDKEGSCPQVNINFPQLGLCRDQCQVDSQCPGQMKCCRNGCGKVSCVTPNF
Procedure: as §1

HE4 protein [4] = target: T2, HE4 protein; test: ELISA assay of binding and specificity to HE4 protein; settings: HRP-conjugated M13 antibody, TMB, FIG. 1
Procedure: as §1

Row | Kd (CA125 protein [1]) | specific binding to the CA125 protein (CA125 protein [2]) | Kd (HE4 protein [3]) | specific binding to the HE4 protein (HE4 protein [4]) | Substance
1 | 0.0114 ± 0.00423 µM | specifically bound | – | – | HTHGAARVPDHR [SEQ ID NO: 1, HTHGAARVPDHR]
2 | – | – | 15.3 ± 12 µM | specifically bound | LGSKPIN [SEQ ID NO: 2, LGSKPIN]
